# In patent US11517508B2, “Composition for single-paste type hydraulic endodontic filling material comprising dimethyl sulfoxide” (MARUCHI, priority 2016, dated 2022):
# Test system: MC3T3-E1 cells
# Experiment: Cytotoxicity test (MTT) of solvents, material extracts on MC3T3-E1 cells
# Type: cell-based
# Details: p<0.05, FIG. 1
# Experimental: FIG. 1 is a graph of a cytotoxicity test according to one embodiment of the invention. The test will be described with reference to FIG. 1.
# A: NMP, B: DMSO, C: DEGEE, and D: DMSO 80%+DEGEE 20%
# Cytotoxicity was measured with respect to the above four kinds of solvents by the following method:
# (i) A specimen was placed in a mold with a thickness of 2 mm and a diameter of 10 mm, and hardened in an incubator at 37° C. for 3 days. (ii) A material extract was derived by filling the hardened specimen with a medium at a surface area/medium ratio of 0.5 cm^2 per ml and incubating it at 37° C. for 3 days. (iii) 1.5×10^4 MC3T3-E1 cells were seeded per well on a 24-well culture plate and incubated for 24 hours, and then the medium was sucked off. 1 ml of the material extract was placed in each well and set in triplicate. (iv) The material extracts were incubated for 24 hours, 48 hours and 72 hours, respectively, and then the medium was discarded. The material extracts were treated with 200 μl of 0.05% MTT solution, wrapped in aluminum foil, and reacted in the incubator at 37° C. for 2 hours. (v) 200 μl of DMSO was added after the reaction. Then, 200 μl of the reaction solution was transferred to each well in a 96-well plate and absorbance was measured at 590 nm.
# [1] = all tests and all times (24, 48, 72 hours), compared with NMP groups
compound,measurement,setting,value
"CCOCCOCCO [DEGEE, diethylene glycol monoethyl ether, reference compound]",cell survival rate,[1],higher cell survival rate than groups for which NMP was used as a solvent
"C[S+](C)[O-] [DMSO, dimethyl sulfoxide]",cell survival rate,"48 hours and 72 hours, comparison between solvent groups",significantly higher cell survival rate than groups for which DEGEE and a mixture of DMSO and DEGEE were used as solvents
same,cell survival rate,[1],higher cell survival rate than groups for which NMP was used as a solvent
